The record followed here is patent US5304687A, “Morpholinyl derivatives of doxorubicin and process for their preparation” (priority 1989, dated 1994).

The subject of one data set is LoVo. The data set can be described thus: Colony assay test against LoVo cells in vitro (treatment for 4 hrs). In kind it is cell-based. The conditions noted are these: Homo sapiens, read-out: IC50 (concentration inhibiting 50% of colony growth), LoVo. From the text: The compounds have been tested in several experimental system in order to ascertain their cytotoxicity and antitumor activity in experimental animals in comparison with parent Doxorubicin. The new anthracyclines result more cytotoxic than the parent drug on LoVo and LoVo Doxorubicin-resistant cell line (LoVo/Dx), Table 1, and are active "in vivo" against doxorubicin-resistant cell lines.
(§1) Colony assay test against LoVo and LoVo/Dx resistant cells
(§2) "in vitro" (treatment for 4 hrs)
(§3) ^a IC50 = concentration inhibiting 50% of colony growth

Data set [1] relates to Doxorubicin-resistant P388 Johnson's Leukemia (P388/Dx). The data set can be described thus: in vivo. The settings on record: BDF1 mice bearing P388/Dx Johnson (10^2 cell/mouse), iv on day 1, at O.D. The method, then: (§4) The primary screening "in vivo" was carried out in BDF1 mice bearing P388 Doxorubicin-resistant Johnson's leukemia (P388/Dx) (10^2 cell/mouse). The drugs were administered iv on day 1 after tumor inoculation.
(§5) ^c O.D. = Optimal Dose: maximally tollerated dose.
(§6) ^d T/C % = Median survival time of treated mice over median survival
(§7) time of controls × 100.

The next data set concerns murine mammary carcinoma. The data set can be described thus: Effect on murine mammary carcinoma, iv and oral route. In kind it is in vivo. The settings on record: for Tumor Inhibition %: at O.D.
Source text: as §5
(§8) Effect of A4 on murine mammary carcinoma.
(§9) ^f iv q4dx4 = treatment iv every four days for four times
(§10) ^g po q4dx4 = oral treatment every four days for four times

Data set [2] relates to Doxorubicin-resistant P388 Leukemia (Schabel) (P388/Dx). Put plainly: Effect on Doxorubicin-resistant P388 leukemia (Schabel) in vitro (treatment 1 hr). It is filed as cell-based. The conditions noted are these: read-out: IC50 (concentration inhibiting 50% of cellular survival), P388/Dx. From the text:
(§11) Effect of A4 on sensitive and Doxorubicin-resistant P388
(§12) Leukemia (Schabel) "in vitro" (treatment 1 hr).
(§13) ^c IC50 = concentration inhibiting 50% of cellular survival.

The next data set relates to P388 Leukemia (Schabel). Put plainly: Effect on sensitive P388 leukemia (Schabel) in vitro (treatment 1 hr). In kind it is cell-based. The conditions noted are these: Mus musculus, read-out: IC50 (concentration inhibiting 50% of cellular survival), P388.
Source text: as §11, §12, §13

Data set [3] relates to Doxorubicin-resistant P38B Schabel's Leukemia. The data set can be described thus: in vivo. The settings on record: BDF1 mice, P388/Dx Schabel (10^2 cell/mouse), iv on day 1, at O.D.
Source text: as §5, §6, §7

For data set [4], the system named is mammary human carcinoma (MX1). The data set can be described thus: Effect on mammary human carcinoma (MX1), iv and oral route. In kind it is in vivo. The conditions noted are these: at O.D.
Source text: as §5
(§14) Effect of A4 on mammary human carcinoma (MX1).
(§15) ^h iv q7dx3 = treatment iv every seven days for three times
(§16) ^i po q7dx3 = oral treatment every seven days for three times

Assay in data set [5]: as above
It is filed as in vivo. The settings on record: in vivo, read-out: O.D. = Optimal Dose: maximally tollerated dose.
Source text: as §5, §14, §15, §16

The subject of the next data set is LoVo/Dx resistant cells. The data set can be described thus: cells. It is filed as cell-based. The conditions noted are these: for R.I. = Resistance Index = (IC50 LoVo/Dx)/(IC50 LoVo): LoVo/Dx vs LoVo; for IC50: read-out: IC50 (concentration inhibiting 50% of colony growth), LoVo/Dx.
Source text: as §1, §2, §3
^b R.I. = Resistance Index = (IC50 LoVo/Dx)/(IC50 LoVo)

Data set [6] is described as follows: in vivo. The settings on record: mouse, in vivo, iv. As to the method: as §4, §5, §6, §7
Data set [7] in a line: Effect on murine mammary carcinoma, iv and oral route. In kind it is in vivo. The settings on record: mouse, in vivo, read-out: O.D. = Optimal Dose: maximally tollerated dose.
Source text: as §5, §8, §9, §10

A short description of data set [8]: in vivo. The settings on record: mouse, in vivo, iv.
Source text: as §5, §6, §7
The source holds these as a separate data set.

Where [9] appears, read: iv q4dx4 (iv every four days for four times).
[10] abbreviates: iv q7dx3 (iv every seven days for three times).
Setting [11] is: po q4dx4 (oral every four days for four times).
The mark [12] stands for this setting: po q7dx3 (oral every seven days for three times).

Each structure is given as a SMILES string. ≈ marks a conversion by molar mass, not a printed value. Like-named read-outs stand apart in the source and are kept apart here.

For `COc1cccc2c1C(=O)c1c(O)c3c(c(O)c1C2=O)C[C@@](O)(C(=O)CO)C[C@@H]3O[C@H]1C[C@H](N)[C@H](O)[C@H](C)O1` [Doxorubicin, doxorubicin], the IC50 in the data set with LoVo (in vitro, treatment for 4 hrs) worked out at 0.0488 mg/L (≈ 0.0898 µM); in data set [2] (P388/Dx (Schabel), in vitro, treatment 1 hr), 4 mg/L (≈ 7.36 µM); in the data set with P388 Leukemia (Schabel) (sensitive P388 (Schabel), in vitro, treatment 1 hr), 0.0527 mg/L (≈ 0.097 µM); with LoVo/Dx resistant cells (LoVo/Dx, in vitro, treatment for 4 hrs), 2.55 mg/L (≈ 4.7 µM). The “T/C % = median survival time of treated mice over median survival time of controls × 100” value (“T/C % = median survival time” for short) in [1] is recorded as 86%; in data set [3] it was 100%. In the data set with murine mammary carcinoma (setting [9]), the “O.D. = Optimal Dose: maximally tollerated dose” value stood at 5.85 mg/kg. The “Tumor Inhibition %” value in the data set with murine mammary carcinoma (setting [9]) was found to be 99%; in data set [4] (setting [10]) it was 72%. The MTD in data set [5] (setting [10]) came out at 6 mg/kg. In addition, in the data set on LoVo/Dx resistant cells (treatment for 4 hrs), the “R.I. = Resistance Index = (IC50 LoVo/Dx)/(IC50 LoVo)” value (“R.I. = Resistance Index =” for short) is 52.6.

For `COc1cccc2c1C(=O)c1c(O)c3c(c(O)c1C2=O)C[C@@](O)(C(=O)CO)C[C@@H]3O[C@H]1C[C@H](N2CCO[C@@H](OC)C2)[C@H](O)[C@H](C)O1` [Compound A5, 3'-deamino-3'-(2"(R)-methoxy-4"-morpholinyl)-doxorubicin], the IC50 in the data set on LoVo (4 h) is 0.0065 mg/L (≈ 0.0101 µM); with LoVo/Dx resistant cells (LoVo/DX, 4 h), 0.0401 mg/L (≈ 0.0623 µM). For the same compound, the “T/C % = median survival time” value in data set [1] is on record as 244%. The same compound came in with an MTD in the data set “in vivo [6]” of 0.13 mg/kg. Moreover, the “R.I. = Resistance Index =” value in the data set on LoVo/Dx resistant cells (treatment for 4 hrs) turned out to be 6.1.

For the compound `COc1cccc2c1C(=O)c1c(O)c3c(c(O)c1C2=O)C[C@@](O)(C(=O)CO)C[C@@H]3O[C@H]1C[C@H](N2CCO[C@H](OC)C2)[C@H](O)[C@H](C)O1` [Compound A4, 3'-deamino-3'-(2"(S)-methoxy-4"-morpholinyl)-doxorubicin], the IC50 in the data set on LoVo (4 h) came to 0.0087 mg/L (≈ 0.0135 µM); in data set [2] (P388/DX, 1 h) it was 0.0243 mg/L (≈ 0.0378 µM); with P388 Leukemia (Schabel) (P388, 1 h), 0.0076 mg/L (≈ 0.0118 µM); in the data set with LoVo/Dx resistant cells (LoVo/DX, 4 h) it was 0.0317 mg/L (≈ 0.0493 µM). Besides, the “T/C % = median survival time” value in data set [1] amounted to 250%; in [3] it was 153%. Further, the MTD in the data set “in vivo [6]” was found to be 0.09 mg/kg; in data set [7] (setting [9]), 0.065 mg/kg; in data set [7] (setting [11]), 0.1 mg/kg; in the data set “in vivo [8]”, 0.09 mg/kg; in data set [5] (setting [10]), 0.05 mg/kg; in data set [5] (setting [12]) it was 0.13 mg/kg. The “Tumor Inhibition %” value in the data set on murine mammary carcinoma (setting [9]) was found to be 94%; with murine mammary carcinoma (setting [11]), 97%; in [4] (setting [10]) it was 98%; in [4] (setting [12]), 99%. The “R.I. = Resistance Index =” value in the data set on LoVo/Dx resistant cells (treatment for 4 hrs) is given as 3.6.
